Here are results for 1 molecule from ChEMBL document CHEMBL4304811, “Development of a Water-Soluble Indolylmaleimide Derivative IM-93 Showing Dual Inhibition of Ferroptosis and NETosis” (ACS Med Chem Lett, 2019).

Molecules are shown by their SMILES. Activity calls are given as the source filed them. The rule behind the calls is not given here.

Assay [1] addresses Protein kinase C epsilon type (Homo sapiens) (UniProt Q02156). The assay is described as follows: Binding affinity to wild-type human partial length PRKCE (A378 to P737 residues) expressed in mammalian expression system assessed as residual binding level at 10 uM by Kinomescan method relative to control.
For assay [2], the target named is Rho-associated protein kinase 2 (Homo sapiens) (UniProt O75116). Description: Binding affinity to wild-type human partial length ROCK2 (M1 to T431 residues) expressed in mammalian expression system assessed as residual binding level at 10 uM by Kinomescan method relative to control.
The target in assay [3] is Leukocyte tyrosine kinase receptor (Homo sapiens) (UniProt P29376). Description: Binding affinity to wild-type human partial length LTK (P422 to S744 residues) expressed in bacterial expression system assessed as residual binding level at 10 uM by Kinomescan method relative to control.
Assay [4] has as its target Serine/threonine-protein kinase 38-like (Homo sapiens) (UniProt Q9Y2H1). Description: Binding affinity to wild-type human partial length NDR2 (N34 to E447 residues) expressed in bacterial expression system assessed as residual binding level at 10 uM by Kinomescan method relative to control.
Assay [5] deals with Tyrosine-protein kinase receptor Tie-1 (Homo sapiens) (UniProt P35590). The assay is described as follows: Binding affinity to wild-type human partial length TIE1 (T819 to A1138 residues) expressed in bacterial expression system assessed as residual binding level at 10 uM by Kinomescan method relative to control.
Assay [6] has as its target Serine/threonine-protein kinase TBK1 (Homo sapiens) (UniProt Q9UHD2). Description: Binding affinity to wild-type human full length TBK1 (M1 to L729 residues) expressed in mammalian expression system assessed as residual binding level at 10 uM by Kinomescan method relative to control.
The target in assay [7] is Cyclin-dependent kinase 13 (Homo sapiens) (UniProt Q14004). The assay is described as follows: Binding affinity to wild-type human partial length CDC2L5 (H675 to S1054 residues) expressed in mammalian expression system assessed as residual binding level at 10 uM by Kinomescan method relative to control.
The target in assay [8] is Wee1-like protein kinase 2 (Homo sapiens) (UniProt P0C1S8). The assay is described as follows: Binding affinity to wild-type human partial length WEE2 (M204 to K492 residues) expressed in bacterial expression system assessed as residual binding level at 10 uM by Kinomescan method relative to control.
Assay [9] deals with Activin receptor type-2A (Homo sapiens) (UniProt P27037). Description: Binding affinity to wild-type human ACVR2A (V171 to T499 residues) expressed in bacterial expression system assessed as residual binding level at 10 uM by Kinomescan method relative to control.
Assay [10] concerns the target Calcium/calmodulin-dependent protein kinase type 1 (Homo sapiens) (UniProt Q14012). Description: Binding affinity to wild-type human full length CAMK1 (M1 to L370 residues) expressed in bacterial expression system assessed as residual binding level at 10 uM by Kinomescan method relative to control.
Assay [11] addresses BDNF/NT-3 growth factors receptor (Homo sapiens) (UniProt Q16620). The assay is described as follows: Binding affinity to wild-type human partial length TRKB (Q547 to G838 residues) expressed in mammalian expression system assessed as residual binding level at 10 uM by Kinomescan method relative to control.
Assay [12] addresses Eukaryotic translation initiation factor 2-alpha kinase 1 (Homo sapiens) (UniProt Q9BQI3). Description: Binding affinity to wild-type human partial length EIF2AK1 (Q147 to E603 residues) expressed in mammalian expression system assessed as residual binding level at 10 uM by Kinomescan method relative to control.
The target in assay [13] is MAP/microtubule affinity-regulating kinase 3 (Homo sapiens) (UniProt P27448). The assay is described as follows: Binding affinity to wild-type human full length MARK3 (M1 to L729 residues) expressed in bacterial expression system assessed as residual binding level at 10 uM by Kinomescan method relative to control.
Assay [14] concerns the target Calcium/calmodulin-dependent protein kinase kinase 1 (Homo sapiens) (UniProt Q8N5S9). Description: Binding affinity to wild-type human partial length CAMKK1 (R65 to E414 residues) expressed in bacterial expression system assessed as residual binding level at 10 uM by Kinomescan method relative to control.
Assay [15] addresses Cyclin-dependent kinase-like 1 (Homo sapiens) (UniProt Q00532). Description: Binding affinity to wild-type human full length CDKL1 (M1 to I358 residues) expressed in mammalian expression system assessed as residual binding level at 10 uM by Kinomescan method relative to control.
The target in assay [16] is Ephrin type-A receptor 3 (Homo sapiens) (UniProt P29320). Description: Binding affinity to wild-type human partial length EPHA3 (D604 to K889 residues) expressed in bacterial expression system assessed as residual binding level at 10 uM by Kinomescan method relative to control.
Assay [17] has as its target Serine/threonine-protein kinase Nek7 (Homo sapiens) (UniProt Q8TDX7). Description: Binding affinity to wild-type human full length NEK7 (M1 to S302 residues) expressed in bacterial expression system assessed as residual binding level at 10 uM by Kinomescan method relative to control.
Assay [18] addresses Phosphatidylinositol 4,5-bisphosphate 3-kinase catalytic subunit gamma isoform (Homo sapiens) (UniProt P48736). The assay is described as follows: Binding affinity to wild-type human partial length PIK3CG (S144 to A1102 residues) expressed in mammalian expression system assessed as residual binding level at 10 uM by Kinomescan method relative to control.
Assay [19] addresses Serine/threonine-protein kinase ICK (Homo sapiens) (UniProt Q9UPZ9). Description: Binding affinity to wild-type human partial length ICK (M1 to P314 residues) expressed in mammalian expression system assessed as residual binding level at 10 uM by Kinomescan method relative to control.
A further assay relates to Neutrophil. The assay is described as follows: Inhibition of PMA-induced superoxide production in C57BL6 mouse neutrophils at 10 uM preincubated for 30 mins followed by PMA stimulation and measured after 30 mins by luminol-lucignenin based luminescence assay. The class given is functional, cell-based.
Assay [20] relates to Receptor-type tyrosine-protein kinase FLT3 (Homo sapiens), P36888 [D835Y]. The assay is described as follows: Binding affinity to human partial length FLT3 D835Y mutant (Q580 to Y969 residues) expressed in bacterial expression system assessed as residual binding level at 10 uM by Kinomescan method relative to control.
Assay [21] has as its target Casein kinase I isoform alpha (Homo sapiens) (UniProt P48729). Description: Binding affinity to wild-type human partial length CSNK1A1 (M1 to L450 residues) expressed in mammalian expression system assessed as residual binding level at 10 uM by Kinomescan method relative to control.
Assay [22] deals with Tyrosine-protein kinase ABL1 (Homo sapiens), P00519 [F317L]. The assay is described as follows: Binding affinity to human phosphorylated ABL1 F317L mutant (S229 to K512 residues) expressed in mammalian expression system assessed as residual binding level at 10 uM by Kinomescan method relative to control.
Assay [23] relates to Epidermal growth factor receptor (Homo sapiens), P00533 [UNDEFINED MUTATION]. The assay is described as follows: Binding affinity to human partial length EGFR L747-E749del/A750P mutant expressed in bacterial expression system assessed as residual binding level at 10 uM by Kinomescan method relative to control.
Epidermal growth factor receptor (Homo sapiens), P00533 [UNDEFINED MUTATION], sequence (P00533 whole entry, looked up, stated change not applied): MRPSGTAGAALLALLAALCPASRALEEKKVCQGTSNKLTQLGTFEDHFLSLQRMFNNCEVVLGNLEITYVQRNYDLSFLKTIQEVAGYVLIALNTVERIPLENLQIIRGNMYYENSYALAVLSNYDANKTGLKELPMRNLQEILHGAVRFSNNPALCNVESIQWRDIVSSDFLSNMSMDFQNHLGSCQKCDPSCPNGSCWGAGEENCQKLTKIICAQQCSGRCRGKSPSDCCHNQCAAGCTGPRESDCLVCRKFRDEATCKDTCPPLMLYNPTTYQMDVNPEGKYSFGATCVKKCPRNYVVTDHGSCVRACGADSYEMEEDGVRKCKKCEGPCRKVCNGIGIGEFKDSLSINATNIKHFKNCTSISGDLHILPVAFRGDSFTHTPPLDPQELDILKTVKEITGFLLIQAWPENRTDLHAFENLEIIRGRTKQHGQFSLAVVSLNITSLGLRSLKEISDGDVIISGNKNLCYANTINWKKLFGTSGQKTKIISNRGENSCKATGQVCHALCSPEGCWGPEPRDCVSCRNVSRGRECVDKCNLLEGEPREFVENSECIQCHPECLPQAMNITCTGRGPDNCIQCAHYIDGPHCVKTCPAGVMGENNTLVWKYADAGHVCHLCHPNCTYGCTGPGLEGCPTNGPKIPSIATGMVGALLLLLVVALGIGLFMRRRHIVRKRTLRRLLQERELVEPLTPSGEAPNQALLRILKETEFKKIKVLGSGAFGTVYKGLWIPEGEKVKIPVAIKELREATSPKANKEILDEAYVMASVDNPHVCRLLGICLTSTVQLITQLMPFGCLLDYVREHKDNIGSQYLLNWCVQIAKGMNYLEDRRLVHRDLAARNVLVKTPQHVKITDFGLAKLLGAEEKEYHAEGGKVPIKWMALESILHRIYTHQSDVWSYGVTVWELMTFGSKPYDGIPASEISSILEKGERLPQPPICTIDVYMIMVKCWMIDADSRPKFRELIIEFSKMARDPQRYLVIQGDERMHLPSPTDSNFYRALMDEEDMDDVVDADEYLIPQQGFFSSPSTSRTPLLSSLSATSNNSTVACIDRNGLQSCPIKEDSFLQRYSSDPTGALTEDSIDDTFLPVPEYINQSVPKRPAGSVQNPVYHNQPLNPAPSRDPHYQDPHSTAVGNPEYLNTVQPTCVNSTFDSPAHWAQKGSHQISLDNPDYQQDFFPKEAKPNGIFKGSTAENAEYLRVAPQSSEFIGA

Serine/threonine-protein kinase Nek7 (Homo sapiens), sequence (Q8TDX7 whole entry, looked up, the tested form may be a part, canonical isoform): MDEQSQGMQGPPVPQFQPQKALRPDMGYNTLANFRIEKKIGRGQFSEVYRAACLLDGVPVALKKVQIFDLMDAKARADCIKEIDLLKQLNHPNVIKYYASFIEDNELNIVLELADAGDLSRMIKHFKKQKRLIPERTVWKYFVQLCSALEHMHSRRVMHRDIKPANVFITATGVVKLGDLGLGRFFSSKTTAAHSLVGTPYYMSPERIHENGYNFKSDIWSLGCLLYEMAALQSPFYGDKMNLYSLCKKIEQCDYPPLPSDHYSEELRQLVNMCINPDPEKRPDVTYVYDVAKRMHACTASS
Wee1-like protein kinase 2 (Homo sapiens), sequence (P0C1S8 whole entry, looked up, the tested form may be a part): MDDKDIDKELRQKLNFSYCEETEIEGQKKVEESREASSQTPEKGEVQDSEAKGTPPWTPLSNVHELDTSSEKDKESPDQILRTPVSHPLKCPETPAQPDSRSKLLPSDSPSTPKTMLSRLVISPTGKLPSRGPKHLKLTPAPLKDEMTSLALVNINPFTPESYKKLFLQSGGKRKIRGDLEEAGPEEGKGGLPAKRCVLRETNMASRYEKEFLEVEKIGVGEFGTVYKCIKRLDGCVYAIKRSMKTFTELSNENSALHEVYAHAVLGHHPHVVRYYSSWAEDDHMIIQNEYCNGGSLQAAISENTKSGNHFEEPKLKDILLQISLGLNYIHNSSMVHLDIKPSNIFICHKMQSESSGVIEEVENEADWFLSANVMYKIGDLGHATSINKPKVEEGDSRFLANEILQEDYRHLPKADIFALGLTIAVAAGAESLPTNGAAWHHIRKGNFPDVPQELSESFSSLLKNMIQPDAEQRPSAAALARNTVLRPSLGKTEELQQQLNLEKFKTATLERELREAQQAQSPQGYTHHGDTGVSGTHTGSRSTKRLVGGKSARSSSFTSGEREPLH
Leukocyte tyrosine kinase receptor (Homo sapiens), sequence (P29376 whole entry, the tested form may be a part): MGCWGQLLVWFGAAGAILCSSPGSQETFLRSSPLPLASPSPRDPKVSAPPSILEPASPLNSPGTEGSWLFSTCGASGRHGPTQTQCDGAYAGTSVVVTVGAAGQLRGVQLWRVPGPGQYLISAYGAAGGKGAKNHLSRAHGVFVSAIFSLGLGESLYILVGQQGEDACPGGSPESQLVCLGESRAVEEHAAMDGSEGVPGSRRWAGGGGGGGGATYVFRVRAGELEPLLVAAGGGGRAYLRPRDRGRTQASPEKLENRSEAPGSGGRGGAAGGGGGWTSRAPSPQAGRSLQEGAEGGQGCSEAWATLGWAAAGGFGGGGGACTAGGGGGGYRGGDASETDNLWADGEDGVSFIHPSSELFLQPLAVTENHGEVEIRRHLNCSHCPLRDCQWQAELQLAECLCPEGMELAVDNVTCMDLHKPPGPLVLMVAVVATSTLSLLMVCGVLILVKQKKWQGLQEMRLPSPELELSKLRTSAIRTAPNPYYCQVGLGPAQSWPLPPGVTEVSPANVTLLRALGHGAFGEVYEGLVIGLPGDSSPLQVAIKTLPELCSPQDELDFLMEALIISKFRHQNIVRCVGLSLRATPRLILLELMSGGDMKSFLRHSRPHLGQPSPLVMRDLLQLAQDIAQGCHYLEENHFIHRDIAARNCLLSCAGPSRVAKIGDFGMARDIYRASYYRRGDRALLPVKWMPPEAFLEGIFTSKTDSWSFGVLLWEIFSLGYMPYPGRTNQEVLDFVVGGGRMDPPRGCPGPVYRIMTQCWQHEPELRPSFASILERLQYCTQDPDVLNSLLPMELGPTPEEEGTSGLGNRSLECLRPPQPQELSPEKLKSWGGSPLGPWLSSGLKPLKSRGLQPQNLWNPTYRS
Serine/threonine-protein kinase ICK (Homo sapiens), sequence (Q9UPZ9 whole entry, the tested form may be a part): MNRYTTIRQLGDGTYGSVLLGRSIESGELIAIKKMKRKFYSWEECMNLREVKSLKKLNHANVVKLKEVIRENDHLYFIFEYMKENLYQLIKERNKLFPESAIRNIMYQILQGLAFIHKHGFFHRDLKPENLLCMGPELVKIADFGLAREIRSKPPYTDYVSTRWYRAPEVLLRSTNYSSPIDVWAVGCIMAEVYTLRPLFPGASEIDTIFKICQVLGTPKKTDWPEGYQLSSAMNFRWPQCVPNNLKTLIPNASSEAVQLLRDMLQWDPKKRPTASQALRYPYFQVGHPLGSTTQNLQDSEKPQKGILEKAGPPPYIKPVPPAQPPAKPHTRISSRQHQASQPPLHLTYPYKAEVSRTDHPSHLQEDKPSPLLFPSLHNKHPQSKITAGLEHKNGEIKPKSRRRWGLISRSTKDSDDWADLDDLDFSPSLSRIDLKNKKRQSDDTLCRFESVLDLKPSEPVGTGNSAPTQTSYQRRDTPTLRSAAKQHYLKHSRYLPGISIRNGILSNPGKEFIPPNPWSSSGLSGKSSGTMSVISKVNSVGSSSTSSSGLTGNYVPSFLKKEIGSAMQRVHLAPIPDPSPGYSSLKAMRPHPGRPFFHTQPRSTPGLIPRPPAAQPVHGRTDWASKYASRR
Tyrosine-protein kinase receptor Tie-1 (Homo sapiens), sequence (P35590 whole entry, the tested form may be a part): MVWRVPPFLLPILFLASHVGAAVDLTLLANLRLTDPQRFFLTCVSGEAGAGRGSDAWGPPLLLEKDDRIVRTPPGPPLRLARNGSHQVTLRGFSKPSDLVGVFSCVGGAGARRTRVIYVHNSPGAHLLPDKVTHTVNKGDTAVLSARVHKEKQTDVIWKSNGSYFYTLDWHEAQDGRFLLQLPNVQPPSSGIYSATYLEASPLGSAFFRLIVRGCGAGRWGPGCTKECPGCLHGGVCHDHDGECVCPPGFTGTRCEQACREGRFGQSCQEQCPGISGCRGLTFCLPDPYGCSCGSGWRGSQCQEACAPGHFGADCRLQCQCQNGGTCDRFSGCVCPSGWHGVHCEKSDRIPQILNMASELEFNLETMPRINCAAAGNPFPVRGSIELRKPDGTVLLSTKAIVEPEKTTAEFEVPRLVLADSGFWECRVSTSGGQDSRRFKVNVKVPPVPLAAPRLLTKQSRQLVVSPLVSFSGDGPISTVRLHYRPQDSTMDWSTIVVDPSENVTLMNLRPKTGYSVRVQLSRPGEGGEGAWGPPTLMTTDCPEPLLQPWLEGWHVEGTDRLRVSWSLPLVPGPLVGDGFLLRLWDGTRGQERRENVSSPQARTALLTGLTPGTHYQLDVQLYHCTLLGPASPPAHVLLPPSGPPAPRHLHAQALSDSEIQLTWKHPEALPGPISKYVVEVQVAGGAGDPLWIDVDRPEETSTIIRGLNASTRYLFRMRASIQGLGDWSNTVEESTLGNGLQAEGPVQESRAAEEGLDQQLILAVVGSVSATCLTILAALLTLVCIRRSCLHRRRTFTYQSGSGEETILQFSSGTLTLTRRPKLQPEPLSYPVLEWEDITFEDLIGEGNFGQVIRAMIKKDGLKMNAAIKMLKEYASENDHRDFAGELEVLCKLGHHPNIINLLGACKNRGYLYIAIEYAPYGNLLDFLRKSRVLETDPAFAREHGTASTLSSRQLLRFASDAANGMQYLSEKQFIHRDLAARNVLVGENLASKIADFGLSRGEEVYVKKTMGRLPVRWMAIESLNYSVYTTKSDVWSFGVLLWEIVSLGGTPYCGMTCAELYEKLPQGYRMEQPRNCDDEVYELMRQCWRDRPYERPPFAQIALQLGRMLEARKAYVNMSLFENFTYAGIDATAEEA
Casein kinase I isoform alpha (Homo sapiens), sequence (P48729 2-337 limits assumed): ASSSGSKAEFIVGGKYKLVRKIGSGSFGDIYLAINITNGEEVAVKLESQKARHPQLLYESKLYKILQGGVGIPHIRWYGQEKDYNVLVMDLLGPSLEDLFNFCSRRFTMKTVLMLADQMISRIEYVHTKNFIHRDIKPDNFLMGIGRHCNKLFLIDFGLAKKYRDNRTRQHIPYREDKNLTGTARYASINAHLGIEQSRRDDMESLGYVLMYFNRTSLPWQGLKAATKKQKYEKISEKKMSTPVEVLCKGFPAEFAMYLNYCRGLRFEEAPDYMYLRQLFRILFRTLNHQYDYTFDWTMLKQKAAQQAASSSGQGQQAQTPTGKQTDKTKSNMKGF

Take `CC(C)N1C(=O)C(NCCCN(C)C)=C(c2cn(C)c3ccccc23)C1=O.Cl`: the Activity in assay [1] is 94%; in assay [2], 100%; in [3], 100%; in [4], 74%; in [5] it was 92%; in assay [6] it was 73%. The Activity in [7] is 99%; in [8] it was 100%; in assay [9], 100%; in assay [10], 100%; in assay [11], 94%; in assay [12] it was 82%. The Activity was 78% in [13]; 93% in assay [14]; 73% in assay [15]; 100% in assay [16]; 95% in assay [17]; 70% in [18]. Further, the Activity in assay [19] turned out to be 81%; in [20], 94%; in [21] it was 88%; in assay [22], 83%; in assay [23] it was 88%. Further, the inhibition entry in the assay on Neutrophil was “inactive”.
